Here are results for one compound from patent publication US5874235A, “Screening assays for cancer chemopreventative agents” (The Johns Hopkins University, priority 1997, dated 1999).

Series [1] concerns SW480 cells. It counts as cell-based, human. Conditions: SUS 100 μM.
For another series, the system named is COX in SW480 cells. The series is described as follows: COX activity in treated cells. The series is classed as cell-based, human.
In series [2] the test system is primary human diploid fibroblast (HDF). The series is described as follows: Ceramide levels in primary fibroblasts. The series is classed as cell-based. Conditions: 200 μM SUS, 48 hours, read-out: increase in ceramide levels. As for the experimental part:
(§1) Ceramide levels were measured using the Escherichia coli diacylglycerol (DAG) kinase assay as previously described (30) with the following modifications. After the initial lipid extraction, phases were broken by adding 2 ml chloroform and 2 ml 1M NaCl and lipids were washed with 1M NaCl prior to drying under nitrogen (32, 33). After solubilization, samples were sonicated for 15 seconds. The DAG reaction was performed for 30 minutes at 25° C. in a 100 μl reaction volume with 3.5 μg DAG kinase (Calbiochem) and […] γ^32 P-ATP (Dupont NEN, 6000 Ci/mmol). After extraction of the labeled lipids, the lower chloroform phase was washed with 1% HCl prior to drying under nitrogen. The solvent mixture for thin layer chromatography was chloroform:acetone:methanol:acetic acid:water (10:4:3:2:1). Samples were quantitated using a Phosphorimager (Molecular Dynamics).
This ability of SUS is not limited to colon cancer cells; primary fibroblasts and immortalized keratinocytes can increase ceramide levels and undergo apoptosis in response to SUS. […] Forty-eight hours after exposure to 200 μM SUS greater than 70% of the cells had undergone apoptosis and ceramide levels were 8.2 and 4.7 fold increased in HDF and HaCat cells, respectively. […]

Series [3] has as its system SW480 cells. The series is described as follows: Ceramide levels, E. coli diacylglycerol (DAG) kinase assay. It counts as cell-based, human. How it is done:
Cells were harvested and ceramide was quantified. The first lane of each panel corresponds to a ceramide standard (ceramide type III, Sigma). […] HCT116 and SW480 cells were treated with SUS or INDO as indicated. Ceramide levels were determined as described above. […] Control cells were treated with DMSO vehicle only. Cells were harvested at the indicated times following treatment and ceramide levels were determined as described above. The data are plotted as the mean of at least two experiments with the error bars corresponding to the standard deviation.
as §1

Series [4] has as its system SW480 cells. Briefly: cells. It counts as cell-based, human. Conditions: for increase in arachidonic acid: apoptosis-inducing doses of SUS. How it is done: FIGS. 4A, 4B, 4C, 4D, 4E and 4F. The role of arachidonic acid in NSAID-mediated apoptosis. […] HCT116 and SW480 cells were treated with the indicated concentrations of SUS or INDO. Arachidonic acid (AA) levels were determined by measuring release of ^3 H-AA into the media as previously described (18). Data are indicated as the mean of three replicates with the error bars corresponding to the standard deviation. In addition, the nature of the released radiolabeled material was evaluated by thin layer chromatography as previously described (28). […] HCT116 and SW480 cells were incubated with ^3 H-choline chloride (0.5 mCi ml^-1, 80 Ci mmol^-1, New England Nuclear) for 48 hours. After labeling, cells were washed with HBSS (Gibco) and treated with SUS or INDO for the indicated times. Sphingomyelin measurements were performed using the bacterial sphingomyelinase method as previously described (18). Sphingomyelin levels at each time point are plotted as a percentage of that in untreated control cells. For each point, the mean of at least two independent experiments is presented with the error bars corresponding to the standard deviations. […] SW480 cells were treated with 200 μM arachidonic acid (AA), SUS (SUS) or behenic acid as a control fatty acid (FA) as indicated. […] SW480 cells were treated with suboptimal doses (100 μM) of arachidonic acid (AA), SUS (SUS), or both (AA+SUS) as indicated. After 48 hours of treatment, apoptosis and ceramide increases were assessed as described for FIGS. 1 and 3, respectively. Ceramide increases (left axis) were expressed as fold increases relative to untreated cells. Apoptosis (right axis) was expressed as percent apoptotic cells minus percent apoptotic cells in untreated cells (5.6%+/-2.4). Data are indicated as the mean of duplicates with the error bars corresponding to the standard deviation.
Arachidonic acid is known to stimulate neutral sphingomyelinase (18), which catalyzes the conversion of sphingomyelin to ceramide. We therefore considered the possibility that inhibition of COX activity might lead to increases in arachidonic acid, the substrate for COX. To test this hypothesis, we first determined whether SUS stimulated arachidonic acid accumulation. In both SW480 and HCT 116 cells, apoptosis-inducing doses of SUS increased arachidonic acid by 2 to 3 fold at 24 hours and by approximately 5 fold at 48 hours (FIGS. 4A and 4B). The arachidonic acid increase following SUS treatment was as great as that following treatment with mellitin, a known activator of phospholipase A2. Arachidonic acid levels in HCT116 cells increased 3.5 fold one hour after treatment with 1 μM mellitin. Likewise, arachidonic acid levels increased 2.9 fold in SW480 cells one hour after mellitin treatment. Arachidonic acid (AA) levels were determined by measuring release of ^3 H-AA into the media as previously described (18). The nature of released radiolabeled material was evaluated by thin layer chromatography analysis as previously described (28).

Consider `CSc1ccc(/C=C2/C(C)=C(CC(=O)O)c3cc(F)ccc32)cc1` [SUS, sulindac sulfide], for which, in the series with SW480 cells [1], the cell death entry is “not at 100 μM”. In addition, the results for the “COX activity, % of controls” value in the series on COX in SW480 cells (50 μM SUS) and with COX in SW480 cells (200 μM SUS) were 74+/-22% and 37+/-27%, respectively. For the same compound, the fold induction at 200 µM in series [2] amounted to 8.2; in the series with SW480 cells [3] (Homo sapiens, SW480, SUS 200 μM, with or without 10 μM CHX, 48 hours, read-out: fold increase in ceramide levels relative to vehicle controls), 9.2 ± 0.1; in the series on SW480 cells [4] (Homo sapiens, SW480, 200 μM SUS, 16 hours, read-out: increase in arachidonic acid), 3.4. Moreover, in the series on SW480 cells [3] (8 hours post-treatment, before morphologic features of apoptosis), the “ceramide levels early after treatment” value is “increased to substantial levels”. Further, the “magnitude of the ceramide increase” value in the series on SW480 cells [3] (SUS) amounted to 10 fold. The ceramide induction entry with SW480 cells [3] (SUS 50 μM) was “did not induce ceramide”; with SW480 cells [3] (SUS 100 μM), “not at 100 μM”; in the series with SW480 cells [3] (SUS 200 μM), “induced both ceramide and cell death”. In addition, the “time of maximum ceramide induction” value in the series on SW480 cells [3] (SUS 200 μM) lay within 24 to 48 h. Also, the “effect on ceramide levels” value in the series with SW480 cells [3] (suboptimal doses, 100 μM each, separately or together, 48 hours) is listed as “little effect on ceramide levels”. Further, the “increase in arachidonic acid” value in the series on SW480 cells [4] (24 hours) is 2 to 3 fold; in the series with SW480 cells [4] (48 hours), “approximately 5 fold”.
